Activity calls are given as the source filed them.
Legend:
Phosphomannomutase 2 = Phosphomannomutase 2 (Homo sapiens, UniProt O15305); assay: Counter screen SAR assay for PMM2 inhibitors via a fluorescence intensity assay. [Related pubchem assays (depositor defined):AID1545, AID1574]
[1] = biological target: T1, Voltage-gated N-type calcium channel alpha-1B subunit/Amyloid beta A4 precursor protein-binding family A member 1 (Homo sapiens, UniProt Q00975+Q02410); format: protein assay
[2] = biological target: T1, Voltage-gated N-type calcium channel alpha-1B subunit/Amyloid beta A4 precursor protein-binding family A member 1; format: protein assay; remark: listed apart in the source
Cannabinoid receptor 2 [3] = biological target: T2, Cannabinoid receptor 2 (Homo sapiens, UniProt P34972); assay: SAR analysis of agonists of the Cannabinoid Receptor 2 using an Image-Based Assay - Set 2. [Related pubchem assays (depositor defined):AID1961, AID1965]; format: functional
Cannabinoid receptor 2 [4] = biological target: T2, Cannabinoid receptor 2; assay: SAR analysis of antagonists of the Cannabinoid Receptor 2 using an Image-Based Assay - Set 2. [Related pubchem assays (depositor defined):AID1961, AID1965]; format: functional
[5] = biological target: T3, G-protein coupled receptor 55 (Homo sapiens, UniProt Q9Y2T6); assay: SAR analysis of selective Agonists of GPR55 using an Image-Based Assay - Set 2. [Related pubchem assays (depositor defined):AID1961, AID1965]; format: functional
Cannabinoid receptor 1 [6] = biological target: T4, Cannabinoid receptor 1 (Homo sapiens, UniProt P21554); assay: SAR analysis of agonists of the Cannabinoid Receptor 1 using an Image-Based Assay - Set 3. [Related pubchem assays (depositor defined):AID1961, AID1965]; format: functional
Cannabinoid receptor 1 [7] = biological target: T4, Cannabinoid receptor 1; assay: SAR analysis of antagonists of the Cannabinoid Receptor 1 using an Image-Based Assay - Set 3. [Related pubchem assays (depositor defined):AID1961, AID1965]; format: functional
[8] = biological target: T5, G-protein coupled receptor 35 (Homo sapiens, UniProt Q9HC97); assay: SAR analysis of Antagonists of the GPR35 Receptor using an Image-Based Assay - Set 4. [Related pubchem assays (depositor defined):[…]]; format: functional
[9] = biological target: T5, G-protein coupled receptor 35; assay: SAR analysis of Agonists of the GPR35 Receptor using an Image-Based Assay - Set 3. [Related pubchem assays (depositor defined):AID1961, AID1965]; format: functional
[10] = microbe, parasite or virus in culture; format: functional; settings: Mycobacterium tuberculosis
[11] = biological target: T3, G-protein coupled receptor 55; assay: GPR55 antagonists blocking LPI-driven arrestin recruitment, primary screen, imaging, U2OS, beta-arrestin-GFP, LPI agonist (AID 2013); format: functional;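 also: antagonist potency measured as reduced agonist-driven arrestin aggregation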
[12] = growth suppression of beta-catenin-knockout colon cells, dose response, cell-based, HCT116, human colon tumor (AID 1045); format: functional;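 also: HCT116 colon tumor cells with beta catenin knocked out; cells exposed to compound for 60 hours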
Trypanosoma cruzi = assay: growth inhibition of intracellular Trypanosoma cruzi, dose response, cell-based, plate reader, dry powder, set 3 (AID 493197); format: functional
[13] = cytotoxicity toward NIH3T3 fibroblasts, dose response, counter-screen, cell-based, ATP luminescence, mouse fibroblasts (AID 2010); format: functional;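 also: cells exposed to compound for about 90 hours before reading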
[14] = growth suppression of PTEN-null colon cells, dose response, cell-based, HCT116 PTEN knockout (AID 1047); format: functional;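 also: HCT116 colon tumor cells with PTEN knocked out; cells exposed to compound for 60 hours before readout; potency for loss of cell viability measured by luminescence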
[15] = cytotoxicity in NIH/3T3 mouse fibroblasts, dose response, cytotoxicity control, cell-based, mouse embryonic fibroblasts, dry powder, set 2 (AID 493247); format: functional; settings: Fibroblast
[16] = inhibitors of intracellular T. cruzi replication, confirmation, NIH3T3 host cells, beta-gal luminescence (AID 2044); format: functional, cell-based;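 also: intracellular parasites grown in NIH/3T3 mouse fibroblasts as host cells; luminescent beta-galactosidase reporter signal from transgenic T. cruzi replicating inside host cells; inhibitors lower the luminescence signal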
[17] = biological target: T6, Microphthalmia-associated transcription factor (Homo sapiens, UniProt O75030); assay: TRPM1 promoter luciferase signal decrease, dose response, MITF inhibitor project, cell-based, SK-MEL-5, cherry-picked, set 3 (AID 493073); format: functional
T6 sequence (O75030 whole entry): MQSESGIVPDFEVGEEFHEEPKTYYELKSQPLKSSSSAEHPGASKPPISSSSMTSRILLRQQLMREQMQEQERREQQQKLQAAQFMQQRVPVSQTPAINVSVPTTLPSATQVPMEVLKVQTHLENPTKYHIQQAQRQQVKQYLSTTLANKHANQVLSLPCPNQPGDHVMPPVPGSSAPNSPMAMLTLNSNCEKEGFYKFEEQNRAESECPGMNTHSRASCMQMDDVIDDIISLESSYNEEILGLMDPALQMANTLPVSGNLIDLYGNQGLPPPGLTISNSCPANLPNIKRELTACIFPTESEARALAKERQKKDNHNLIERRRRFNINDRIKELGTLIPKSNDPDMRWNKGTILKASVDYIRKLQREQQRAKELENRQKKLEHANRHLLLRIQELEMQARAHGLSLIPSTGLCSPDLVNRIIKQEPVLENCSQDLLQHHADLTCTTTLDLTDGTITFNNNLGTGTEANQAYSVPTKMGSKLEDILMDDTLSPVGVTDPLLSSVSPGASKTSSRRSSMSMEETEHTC

T3 sequence (Q9Y2T6 whole entry): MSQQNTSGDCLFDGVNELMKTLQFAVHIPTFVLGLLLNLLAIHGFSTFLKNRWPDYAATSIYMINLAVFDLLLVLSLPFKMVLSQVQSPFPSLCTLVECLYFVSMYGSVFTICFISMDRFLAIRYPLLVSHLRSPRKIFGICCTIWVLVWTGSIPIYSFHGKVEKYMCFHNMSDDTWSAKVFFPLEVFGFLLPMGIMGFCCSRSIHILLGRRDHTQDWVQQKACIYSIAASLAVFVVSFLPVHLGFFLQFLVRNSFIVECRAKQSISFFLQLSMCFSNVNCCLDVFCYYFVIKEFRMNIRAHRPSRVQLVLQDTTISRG
T1 sequence (Q00975 whole entry): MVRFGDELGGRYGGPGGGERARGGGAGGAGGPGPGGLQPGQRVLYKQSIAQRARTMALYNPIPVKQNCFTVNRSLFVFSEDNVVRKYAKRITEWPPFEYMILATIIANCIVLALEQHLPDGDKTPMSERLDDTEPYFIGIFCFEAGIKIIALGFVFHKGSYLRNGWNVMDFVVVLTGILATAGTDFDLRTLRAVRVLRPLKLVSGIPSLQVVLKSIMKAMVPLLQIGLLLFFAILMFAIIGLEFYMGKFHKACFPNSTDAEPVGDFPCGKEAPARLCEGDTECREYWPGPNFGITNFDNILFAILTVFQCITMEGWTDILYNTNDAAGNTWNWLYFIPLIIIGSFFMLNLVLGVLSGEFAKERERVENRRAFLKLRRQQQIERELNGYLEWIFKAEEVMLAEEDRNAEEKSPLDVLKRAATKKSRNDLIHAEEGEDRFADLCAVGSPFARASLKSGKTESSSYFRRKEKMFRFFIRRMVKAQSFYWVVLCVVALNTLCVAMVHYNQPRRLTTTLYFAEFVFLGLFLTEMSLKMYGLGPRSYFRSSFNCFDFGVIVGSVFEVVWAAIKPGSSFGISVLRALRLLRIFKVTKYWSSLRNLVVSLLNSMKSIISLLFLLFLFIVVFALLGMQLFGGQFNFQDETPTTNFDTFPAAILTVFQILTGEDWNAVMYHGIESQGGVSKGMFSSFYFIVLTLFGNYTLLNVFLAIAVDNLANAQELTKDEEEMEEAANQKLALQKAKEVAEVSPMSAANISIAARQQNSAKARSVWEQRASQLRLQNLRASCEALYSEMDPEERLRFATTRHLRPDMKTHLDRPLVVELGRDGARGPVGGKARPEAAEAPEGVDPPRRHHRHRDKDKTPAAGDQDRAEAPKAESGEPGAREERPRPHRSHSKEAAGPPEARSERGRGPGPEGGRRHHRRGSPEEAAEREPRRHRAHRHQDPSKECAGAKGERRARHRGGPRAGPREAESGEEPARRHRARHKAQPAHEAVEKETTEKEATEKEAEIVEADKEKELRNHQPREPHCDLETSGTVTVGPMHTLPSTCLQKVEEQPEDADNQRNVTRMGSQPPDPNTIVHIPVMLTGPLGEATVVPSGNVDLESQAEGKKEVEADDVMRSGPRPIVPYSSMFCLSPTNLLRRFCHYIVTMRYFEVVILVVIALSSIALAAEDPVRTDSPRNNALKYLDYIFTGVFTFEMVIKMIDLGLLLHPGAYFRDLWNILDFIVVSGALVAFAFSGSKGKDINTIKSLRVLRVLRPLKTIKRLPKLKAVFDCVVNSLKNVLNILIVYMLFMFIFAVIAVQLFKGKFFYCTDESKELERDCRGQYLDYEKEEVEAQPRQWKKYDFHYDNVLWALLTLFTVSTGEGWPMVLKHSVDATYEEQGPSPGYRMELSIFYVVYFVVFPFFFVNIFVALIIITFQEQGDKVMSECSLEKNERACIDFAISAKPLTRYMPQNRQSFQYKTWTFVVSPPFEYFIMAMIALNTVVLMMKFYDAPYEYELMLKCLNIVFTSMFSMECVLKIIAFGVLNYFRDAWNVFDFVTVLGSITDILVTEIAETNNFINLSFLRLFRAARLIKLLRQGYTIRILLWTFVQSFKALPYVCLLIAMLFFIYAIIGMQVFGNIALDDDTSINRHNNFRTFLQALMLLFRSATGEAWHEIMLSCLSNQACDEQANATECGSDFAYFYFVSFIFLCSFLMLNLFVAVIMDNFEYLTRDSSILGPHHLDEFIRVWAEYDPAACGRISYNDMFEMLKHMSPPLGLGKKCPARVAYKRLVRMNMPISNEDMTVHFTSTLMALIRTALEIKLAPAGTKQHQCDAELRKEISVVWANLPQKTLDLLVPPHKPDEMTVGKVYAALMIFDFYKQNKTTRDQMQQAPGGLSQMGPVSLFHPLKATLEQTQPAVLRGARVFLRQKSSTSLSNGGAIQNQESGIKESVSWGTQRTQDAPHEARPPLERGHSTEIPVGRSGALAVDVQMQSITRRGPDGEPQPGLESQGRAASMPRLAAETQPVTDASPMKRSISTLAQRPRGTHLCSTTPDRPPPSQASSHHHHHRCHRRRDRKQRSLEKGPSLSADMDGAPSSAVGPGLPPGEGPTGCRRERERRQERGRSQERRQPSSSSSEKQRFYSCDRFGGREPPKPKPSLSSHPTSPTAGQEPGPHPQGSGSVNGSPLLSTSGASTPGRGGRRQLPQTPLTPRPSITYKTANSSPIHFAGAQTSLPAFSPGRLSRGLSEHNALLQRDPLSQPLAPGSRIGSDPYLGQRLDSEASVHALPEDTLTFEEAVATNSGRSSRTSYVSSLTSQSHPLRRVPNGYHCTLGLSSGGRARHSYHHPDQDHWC
T1 sequence (Q02410 whole entry): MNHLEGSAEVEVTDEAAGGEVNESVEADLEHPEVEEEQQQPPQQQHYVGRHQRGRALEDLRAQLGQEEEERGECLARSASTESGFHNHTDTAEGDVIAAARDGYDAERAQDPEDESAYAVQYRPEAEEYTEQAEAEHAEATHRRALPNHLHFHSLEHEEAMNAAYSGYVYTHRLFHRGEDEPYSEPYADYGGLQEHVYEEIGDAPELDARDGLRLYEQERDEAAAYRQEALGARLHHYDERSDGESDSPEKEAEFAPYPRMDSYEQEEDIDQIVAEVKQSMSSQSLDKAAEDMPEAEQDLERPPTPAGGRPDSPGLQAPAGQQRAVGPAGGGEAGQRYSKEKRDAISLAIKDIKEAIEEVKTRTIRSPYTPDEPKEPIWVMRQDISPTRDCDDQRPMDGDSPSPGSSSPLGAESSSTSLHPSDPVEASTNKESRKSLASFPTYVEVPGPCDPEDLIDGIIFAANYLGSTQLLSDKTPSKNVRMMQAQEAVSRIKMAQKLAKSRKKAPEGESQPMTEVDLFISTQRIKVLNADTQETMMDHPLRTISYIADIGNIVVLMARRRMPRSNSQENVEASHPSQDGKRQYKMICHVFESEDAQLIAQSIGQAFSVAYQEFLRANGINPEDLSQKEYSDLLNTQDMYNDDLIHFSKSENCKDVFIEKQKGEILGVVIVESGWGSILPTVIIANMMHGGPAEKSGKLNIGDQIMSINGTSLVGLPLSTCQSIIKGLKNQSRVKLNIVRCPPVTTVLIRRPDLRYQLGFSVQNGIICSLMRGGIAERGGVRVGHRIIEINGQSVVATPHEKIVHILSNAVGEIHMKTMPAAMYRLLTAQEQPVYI
T2 sequence (P34972 whole entry): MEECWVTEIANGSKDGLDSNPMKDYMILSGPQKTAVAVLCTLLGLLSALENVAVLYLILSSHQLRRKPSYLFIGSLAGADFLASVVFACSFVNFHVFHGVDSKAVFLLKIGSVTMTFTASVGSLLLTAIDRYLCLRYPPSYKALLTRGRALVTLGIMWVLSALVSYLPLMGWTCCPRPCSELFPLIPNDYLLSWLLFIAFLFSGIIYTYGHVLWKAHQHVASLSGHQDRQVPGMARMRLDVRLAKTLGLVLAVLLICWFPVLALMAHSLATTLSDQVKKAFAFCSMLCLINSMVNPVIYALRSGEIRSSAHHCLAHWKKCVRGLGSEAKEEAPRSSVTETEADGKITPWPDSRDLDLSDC
T5 sequence (Q9HC97 whole entry): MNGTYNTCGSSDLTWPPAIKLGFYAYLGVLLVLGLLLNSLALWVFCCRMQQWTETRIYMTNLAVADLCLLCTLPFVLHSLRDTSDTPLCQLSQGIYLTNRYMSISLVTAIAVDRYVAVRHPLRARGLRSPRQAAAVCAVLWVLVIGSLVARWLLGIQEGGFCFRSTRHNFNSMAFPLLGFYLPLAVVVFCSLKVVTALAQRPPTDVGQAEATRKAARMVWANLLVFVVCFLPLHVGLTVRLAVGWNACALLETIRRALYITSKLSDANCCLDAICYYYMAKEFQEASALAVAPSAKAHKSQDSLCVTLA
T4 sequence (P21554 whole entry): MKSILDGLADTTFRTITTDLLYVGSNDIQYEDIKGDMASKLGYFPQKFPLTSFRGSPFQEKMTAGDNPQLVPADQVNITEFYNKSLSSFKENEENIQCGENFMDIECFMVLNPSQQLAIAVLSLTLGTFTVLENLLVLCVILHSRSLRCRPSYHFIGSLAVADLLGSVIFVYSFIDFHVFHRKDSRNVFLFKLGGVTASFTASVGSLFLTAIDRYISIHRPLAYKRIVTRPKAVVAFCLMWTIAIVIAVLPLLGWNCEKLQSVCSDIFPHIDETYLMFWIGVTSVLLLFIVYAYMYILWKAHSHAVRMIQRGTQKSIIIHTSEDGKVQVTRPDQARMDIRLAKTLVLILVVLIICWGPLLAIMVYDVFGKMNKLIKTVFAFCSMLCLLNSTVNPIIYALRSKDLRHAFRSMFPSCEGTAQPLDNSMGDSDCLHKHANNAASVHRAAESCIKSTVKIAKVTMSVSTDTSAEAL
Phosphomannomutase 2, sequence (O15305 whole entry): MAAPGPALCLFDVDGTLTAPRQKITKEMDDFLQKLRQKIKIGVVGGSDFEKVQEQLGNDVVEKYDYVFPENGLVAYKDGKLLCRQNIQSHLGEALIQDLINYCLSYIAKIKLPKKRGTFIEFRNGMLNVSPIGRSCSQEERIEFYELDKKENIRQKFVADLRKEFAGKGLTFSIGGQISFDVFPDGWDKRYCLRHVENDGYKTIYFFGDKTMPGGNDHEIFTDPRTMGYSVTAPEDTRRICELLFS

## O=c1c2ccccc2sn1-c1cccc(I)c1
Phosphomannomutase 2
  IC50: > 100 µM (inactive)

## O=C(O)Cc1sc(Nc2ccc(F)cc2)nc1-c1cccs1
[1]
  IC50: 9.21 µM (active)
[2]
  IC50: > 50 µM (inactive)

## Cc1cc2cc3c(cc2n2c(SCC(=O)Nc4nc(-c5ccccc5)cs4)nnc12)OCCO3
Cannabinoid receptor 2 [3]
  EC50: > 32 µM (inactive)
Cannabinoid receptor 2 [4]
  IC50: > 32 µM (inactive)
[5]
  EC50: 4.42 µM (active)
Cannabinoid receptor 1 [6]
  EC50: > 32 µM (inactive)
Cannabinoid receptor 1 [7]
  IC50: 12.7 µM (inactive)
[8]
  IC50: > 32 µM (inactive)
[9]
  EC50: > 32 µM (inactive)

## CC(C)(C)c1nn(-c2ccccc2)c2[nH]c(=O)c(CNCc3ccc4c(c3)OCO4)cc12
[10]
  CC50: 27.2 µM (active)
[11]
  IC50: 2.67 µM (active)

## O=C(COc1ccccc1)N/N=C/c1ccc([N+](=O)[O-])o1
[12]
  EC50: 6.95 µM (active)
Trypanosoma cruzi
  AC50: 0.317 µM (active)
[13]
  EC50: > 60 µM (not active)
[14]
  EC50: 7.39 µM (active)
[15]
  AC50: 21.2 µM (active)
[16]
  EC50: 0.122 µM (active)
[17]
  AC50: 21.5 µM (active)

— ChEMBL document CHEMBL1201862, “PubChem BioAssay data set” (2004)
